Experimental data: the supplement of paper PMC10307832

Key:
Test in all cases: relative viability (nuclei count vs DMSO), 5 days (fraction); higher = more cells survive
Erlotinib + Olaparib = compound: C#Cc1cccc(Nc2ncnc3cc(OCCOC)c(OCCOC)cc23)c1 [Erlotinib] + O=C(c1cc(Cc2n[nH]c(=O)c3ccccc23)ccc1F)N1CCN(C(=O)C2CC2)CC1 [Olaparib] (partner 8 µM)
Outline: (§1)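 Dosing by pin tool came one day after lung cancer cell lines were seeded in 1536-well plates, using either one drug or a fixed anchor-drug dose plus five library-drug doses (not always all listed) in √10 steps. After 5 days, nuclei were counted on 4× images. Relative viability is treated-well nuclei count divided by vehicle-well nuclei count, and values are medians of duplicate plates.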

AT9283 + Lapatinib = compound: O=C(Nc1c[nH]nc1-c1nc2ccc(CN3CCOCC3)cc2[nH]1)NC1CC1 [AT9283] + CS(=O)(=O)CCNCc1ccc(-c2ccc3ncnc(Nc4ccc(OCc5cccc(F)c5)c(Cl)c4)c3c2)o1 [Lapatinib] (partner 2 µM)
Outline: as §1

AT9283 + Decitabine = compound: O=C(Nc1c[nH]nc1-c1nc2ccc(CN3CCOCC3)cc2[nH]1)NC1CC1 [AT9283] + Nc1ncn([C@H]2C[C@H](O)[C@@H](CO)O2)c(=O)n1 [Decitabine] (partner 2 µM)
Outline: as §1

Erlotinib + AZD7762 = compound: C#Cc1cccc(Nc2ncnc3cc(OCCOC)c(OCCOC)cc23)c1 [Erlotinib] + NC(=O)Nc1cc(-c2cccc(F)c2)sc1C(=O)N[C@H]1CCCNC1 [AZD7762] (partner 0.2 µM)
Outline: as §1

Erlotinib + Trametinib = compound: C#Cc1cccc(Nc2ncnc3cc(OCCOC)c(OCCOC)cc23)c1 [Erlotinib] + CC(=O)Nc1cccc(-n2c(=O)n(C3CC3)c(=O)c3c(Nc4ccc(I)cc4F)n(C)c(=O)c(C)c32)c1 [Trametinib] (partner 0.02 µM)
Outline: as §1

EBC-1
relative viability (Erlotinib + Olaparib; first compound 0.02 µM): 0.724 | relative viability (Erlotinib + Olaparib; first compound 0.2 µM): 0.75 | relative viability (Erlotinib + Olaparib; first compound 0.6325 µM): 0.675 | relative viability (AT9283 + Lapatinib; first compound 0.003 µM): 0.217 | relative viability (AT9283 + Lapatinib; first compound 0.03 µM): 0.178 | relative viability (AT9283 + Lapatinib; first compound 0.09487 µM): 0.208 | relative viability (AT9283 + Lapatinib; first compound 0.3 µM): 0.182

EKVX
relative viability (AT9283 + Decitabine; first compound 0.003 µM): 0.38 | relative viability (AT9283 + Decitabine; first compound 0.03 µM): 0.246 | relative viability (AT9283 + Decitabine; first compound 0.09487 µM): 0.234 | relative viability (AT9283 + Decitabine; first compound 0.3 µM): 0.215 | relative viability (Erlotinib + Olaparib; first compound 0.02 µM): 0.839 | relative viability (Erlotinib + Olaparib; first compound 0.2 µM): 0.476 | relative viability (Erlotinib + Olaparib; first compound 0.6325 µM): 0.385 | relative viability (Erlotinib + Olaparib; first compound 2 µM): 0.183 | relative viability (Erlotinib + AZD7762; first compound 0.02 µM): 0.686 | relative viability (Erlotinib + AZD7762; first compound 0.2 µM): 0.693 | relative viability (Erlotinib + AZD7762; first compound 0.6325 µM): 0.423 | relative viability (Erlotinib + AZD7762; first compound 2 µM): 0.219 | relative viability (Erlotinib + Trametinib; first compound 0.02 µM): 0.367 | relative viability (Erlotinib + Trametinib; first compound 0.2 µM): 0.2 | relative viability (Erlotinib + Trametinib; first compound 0.6325 µM): 0.191 | relative viability (Erlotinib + Trametinib; first compound 2 µM): 0.162 | relative viability (AT9283 + Lapatinib; first compound 0.003 µM): 0.241 | relative viability (AT9283 + Lapatinib; first compound 0.03 µM): 0.188 | relative viability (AT9283 + Lapatinib; first compound 0.09487 µM): 0.128 | relative viability (AT9283 + Lapatinib; first compound 0.3 µM): 0.108

EMC-BAC-2
relative viability (AT9283 + Decitabine; first compound 0.003 µM): 0.992 | relative viability (AT9283 + Decitabine; first compound 0.03 µM): 0.496 | relative viability (AT9283 + Decitabine; first compound 0.09487 µM): 0.338 | relative viability (AT9283 + Decitabine; first compound 0.3 µM): 0.321 | relative viability (Erlotinib + Olaparib; first compound 0.02 µM): 0.569 | relative viability (Erlotinib + Olaparib; first compound 0.2 µM): 0.547 | relative viability (Erlotinib + Olaparib; first compound 0.6325 µM): 0.492 | relative viability (Erlotinib + Olaparib; first compound 2 µM): 0.46 | relative viability (Erlotinib + AZD7762; first compound 0.02 µM): 1.1 | relative viability (Erlotinib + AZD7762; first compound 0.2 µM): 1.08 | relative viability (Erlotinib + AZD7762; first compound 0.6325 µM): 1.26 | relative viability (Erlotinib + AZD7762; first compound 2 µM): 1.04 | relative viability (Erlotinib + Trametinib; first compound 0.2 µM): 0.765 | relative viability (Erlotinib + Trametinib; first compound 0.6325 µM): 0.901 | relative viability (Erlotinib + Trametinib; first compound 2 µM): 0.739 | relative viability (AT9283 + Lapatinib; first compound 0.003 µM): 0.875 | relative viability (AT9283 + Lapatinib; first compound 0.03 µM): 0.599 | relative viability (AT9283 + Lapatinib; first compound 0.09487 µM): 0.229 | relative viability (AT9283 + Lapatinib; first compound 0.3 µM): 0.225

EPLC-272H
relative viability (AT9283 + Decitabine; first compound 0.003 µM): 0.379 | relative viability (AT9283 + Decitabine; first compound 0.03 µM): 0.395 | relative viability (AT9283 + Decitabine; first compound 0.09487 µM): 0.185 | relative viability (AT9283 + Decitabine; first compound 0.3 µM): 0.161 | relative viability (Erlotinib + Olaparib; first compound 0.02 µM): 0.704 | relative viability (Erlotinib + Olaparib; first compound 0.2 µM): 0.711 | relative viability (Erlotinib + Olaparib; first compound 0.6325 µM): 1.01 | relative viability (Erlotinib + Olaparib; first compound 2 µM): 0.575 | relative viability (Erlotinib + AZD7762; first compound 0.02 µM): 0.205 | relative viability (Erlotinib + AZD7762; first compound 0.2 µM): 0.209 | relative viability (Erlotinib + AZD7762; first compound 0.6325 µM): 0.21 | relative viability (Erlotinib + AZD7762; first compound 2 µM): 0.202 | relative viability (Erlotinib + Trametinib; first compound 0.02 µM): 0.322 | relative viability (Erlotinib + Trametinib; first compound 0.2 µM): 0.282 | relative viability (Erlotinib + Trametinib; first compound 0.6325 µM): 0.282 | relative viability (Erlotinib + Trametinib; first compound 2 µM): 0.207 | relative viability (AT9283 + Lapatinib; first compound 0.003 µM): 0.854 | relative viability (AT9283 + Lapatinib; first compound 0.03 µM): 0.975 | relative viability (AT9283 + Lapatinib; first compound 0.09487 µM): 0.319 | relative viability (AT9283 + Lapatinib; first compound 0.3 µM): 0.137

H3255
relative viability (AT9283 + Decitabine; first compound 0.003 µM): 0.577 | relative viability (AT9283 + Decitabine; first compound 0.03 µM): 0.556 | relative viability (AT9283 + Decitabine; first compound 0.09487 µM): 0.352 | relative viability (AT9283 + Decitabine; first compound 0.3 µM): 0.222 | relative viability (Erlotinib + Olaparib; first compound 0.02 µM): 0.661 | relative viability (Erlotinib + Olaparib; first compound 0.2 µM): 0.469 | relative viability (Erlotinib + Olaparib; first compound 0.6325 µM): 0.387 | relative viability (Erlotinib + Olaparib; first compound 2 µM): 0.242 | relative viability (Erlotinib + AZD7762; first compound 0.02 µM): 0.794 | relative viability (Erlotinib + AZD7762; first compound 0.2 µM): 0.619 | relative viability (Erlotinib + AZD7762; first compound 0.6325 µM): 0.516 | relative viability (Erlotinib + AZD7762; first compound 2 µM): 0.238 | relative viability (Erlotinib + Trametinib; first compound 0.02 µM): 0.632 | relative viability (Erlotinib + Trametinib; first compound 0.2 µM): 0.412 | relative viability (Erlotinib + Trametinib; first compound 0.6325 µM): 0.326 | relative viability (Erlotinib + Trametinib; first compound 2 µM): 0.214 | relative viability (AT9283 + Lapatinib; first compound 0.003 µM): 0.22 | relative viability (AT9283 + Lapatinib; first compound 0.03 µM): 0.258 | relative viability (AT9283 + Lapatinib; first compound 0.09487 µM): 0.173 | relative viability (AT9283 + Lapatinib; first compound 0.3 µM): 0.159

HARA
relative viability (AT9283 + Decitabine; first compound 0.003 µM): 0.46 | relative viability (AT9283 + Decitabine; first compound 0.03 µM): 0.264 | relative viability (AT9283 + Decitabine; first compound 0.09487 µM): 0.165 | relative viability (AT9283 + Decitabine; first compound 0.3 µM): 0.185 | relative viability (Erlotinib + Olaparib; first compound 0.02 µM): 1.1 | relative viability (Erlotinib + Olaparib; first compound 0.2 µM): 0.591 | relative viability (Erlotinib + Olaparib; first compound 0.6325 µM): 1.02 | relative viability (Erlotinib + Olaparib; first compound 2 µM): 0.354 | relative viability (Erlotinib + AZD7762; first compound 0.02 µM): 0.385 | relative viability (Erlotinib + AZD7762; first compound 0.2 µM): 0.383 | relative viability (Erlotinib + AZD7762; first compound 0.6325 µM): 0.333 | relative viability (Erlotinib + AZD7762; first compound 2 µM): 0.259 | relative viability (Erlotinib + Trametinib; first compound 0.02 µM): 0.709 | relative viability (Erlotinib + Trametinib; first compound 0.2 µM): 0.39 | relative viability (Erlotinib + Trametinib; first compound 0.6325 µM): 0.406 | relative viability (Erlotinib + Trametinib; first compound 2 µM): 0.291 | relative viability (AT9283 + Lapatinib; first compound 0.003 µM): 0.767 | relative viability (AT9283 + Lapatinib; first compound 0.03 µM): 0.504 | relative viability (AT9283 + Lapatinib; first compound 0.09487 µM): 0.0806 | relative viability (AT9283 + Lapatinib; first compound 0.3 µM): 0.0666

HCC-15
relative viability (AT9283 + Decitabine; first compound 0.003 µM): 0.604 | relative viability (AT9283 + Decitabine; first compound 0.03 µM): 0.309 | relative viability (AT9283 + Decitabine; first compound 0.09487 µM): 0.182 | relative viability (AT9283 + Decitabine; first compound 0.3 µM): 0.126 | relative viability (Erlotinib + Olaparib; first compound 0.02 µM): 0.701 | relative viability (Erlotinib + Olaparib; first compound 0.2 µM): 0.753 | relative viability (Erlotinib + Olaparib; first compound 0.6325 µM): 0.715 | relative viability (Erlotinib + Olaparib; first compound 2 µM): 0.626 | relative viability (Erlotinib + AZD7762; first compound 0.02 µM): 1.34 | relative viability (Erlotinib + AZD7762; first compound 0.2 µM): 1.25 | relative viability (Erlotinib + AZD7762; first compound 0.6325 µM): 1.31 | relative viability (Erlotinib + AZD7762; first compound 2 µM): 1.07 | relative viability (Erlotinib + Trametinib; first compound 0.02 µM): 0.394 | relative viability (Erlotinib + Trametinib; first compound 0.2 µM): 0.344 | relative viability (Erlotinib + Trametinib; first compound 0.6325 µM): 0.339 | relative viability (Erlotinib + Trametinib; first compound 2 µM): 0.347 | relative viability (AT9283 + Lapatinib; first compound 0.003 µM): 0.745 | relative viability (AT9283 + Lapatinib; first compound 0.03 µM): 0.37 | relative viability (AT9283 + Lapatinib; first compound 0.09487 µM): 0.159 | relative viability (AT9283 + Lapatinib; first compound 0.3 µM): 0.142

HCC-44
relative viability (AT9283 + Decitabine; first compound 0.003 µM): 0.702 | relative viability (AT9283 + Decitabine; first compound 0.03 µM): 0.969 | relative viability (AT9283 + Decitabine; first compound 0.09487 µM): 0.749 | relative viability (AT9283 + Decitabine; first compound 0.3 µM): 0.871 | relative viability (Erlotinib + Olaparib; first compound 0.02 µM): 0.94 | relative viability (Erlotinib + Olaparib; first compound 0.2 µM): 0.984 | relative viability (Erlotinib + Olaparib; first compound 0.6325 µM): 1.05 | relative viability (Erlotinib + Olaparib; first compound 2 µM): 0.947 | relative viability (Erlotinib + AZD7762; first compound 0.02 µM): 1.01 | relative viability (Erlotinib + AZD7762; first compound 0.2 µM): 1.02 | relative viability (Erlotinib + AZD7762; first compound 0.6325 µM): 0.984 | relative viability (Erlotinib + AZD7762; first compound 2 µM): 0.96 | relative viability (Erlotinib + Trametinib; first compound 0.02 µM): 1.07 | relative viability (Erlotinib + Trametinib; first compound 0.2 µM): 1.01 | relative viability (Erlotinib + Trametinib; first compound 0.6325 µM): 1.1 | relative viability (Erlotinib + Trametinib; first compound 2 µM): 0.981 | relative viability (AT9283 + Lapatinib; first compound 0.003 µM): 0.922 | relative viability (AT9283 + Lapatinib; first compound 0.03 µM): 0.641 | relative viability (AT9283 + Lapatinib; first compound 0.09487 µM): 0.23 | relative viability (AT9283 + Lapatinib; first compound 0.3 µM): 0.188
